Laboratory results taken from patent US20230247995A1, “FUNGICIDAL COMBINATIONS” (UPL Corporation Limited, priority 2022, published 2023).

Assays:
Type in all cases: in vivo
Monilinia fructicola = assay: Efficacy against brown rot affecting peach crop; settings: Ipflufenoquin 4, Pyrimethanil 8.9, combination 4 + 8.9 fl oz/a; for % Severity on Fruit: untreated 63.8; for % Disease incidence on Fruit: untreated 96
Description: Experiments were carried out to evaluate the efficacy of the fungicidal combination of ipflufenoquin and pyrimethanil against brown rot (Monilinia fructicola) affecting peach crop, as disclosed in Table 4.

Cladosporium sp. = assay: Efficacy against scab affecting pecan (nuts); settings: untreated 33.8
Description: Experiments were carried out to evaluate the efficacy of the fungicidal combination of ipflufenoquin and pyrimethanil (both tank mix fungicidal combination and pre-mix formulation as disclosed in Example 1) against scab (Cladosporium sp.) affecting pecan (i.e., nuts), as disclosed in Table 6.

Wilsonomyces spp. = assay: Efficacy against Coryneum blight affecting peach crop; settings: Ipflufenoquin 4, Pyrimethanil 8.9, combination 4 + 8.9 fl oz/a; for % Severity on Fruit: untreated 69.9; for % Disease incidence on Fruit: untreated 100
Description: Experiments were carried out to evaluate the efficacy of the fungicidal combination of ipflufenoquin and pyrimethanil against Coryneum blight (Wilsonomyces spp.) affecting peach crop, as disclosed in Table 5.

[1] = higher rates: Ipflufenoquin 5, Pyrimethanil 11.1, tank mix 5 + 11.1, pre-mix 12.5 fl oz/a
[2] = lower rates: Ipflufenoquin 4, Pyrimethanil 8.9, tank mix 4 + 8.9, pre-mix 10 fl oz/a

SMILES	% Severity on Fruit (Monilinia fructicola) [%]	% Disease incidence on Fruit (Monilinia fructicola) [%]	% Severity on Nuts (Cladosporium sp.; [1]) [%]	% Severity on Nuts (Cladosporium sp.; [2]) [%]	% Severity on Fruit (Wilsonomyces spp.) [%]	% Disease incidence on Fruit (Wilsonomyces spp.) [%]
Cc1nc2c(F)c(F)ccc2cc1Oc1cccc(F)c1C(C)(C)O [Ipflufenoquin, 2-{2-[(7,8-difluoro-2-methyl-3-quinolyl)oxy]-6-fluorophenyl}propan-2-ol]	20.3	42.5	6.7	8.4	6.9	36.8
Cc1cc(C)nc(Nc2ccccc2)n1 [Pyrimethanil, N-(4,6-dimethylpyrimidin-2-yl) aniline]	15.5	19.5	15.7	19.2	42.8	65.8
